System: Male hamsters (Slc:Syrian)
Assay: Effect on LDL-C of hamster, oral administration once per day for two weeks
Format: in vivo
Details: single administration, vs control (Dunnett)
From the text: Male hamsters (6-week-old, Slc:Syrian, Japan SLC, Inc.) were used for an experiment. Blood was collected from the jugular vein under satiation. The hamsters were divided into six groups (N=8) based on TG and TC in plasma and a body weight. For two weeks from the next day, each of a solvent (0.5% methylcellulose aqueous solution: MC), compound A alone, compound B alone, and combination of compound A and compound B was orally administered once per day. For comparison, for two weeks, each of compound C alone and combination of compound A and compound C was orally administered once per day. On the final day of administration of the pharmaceutical agent, blood was collected under fasting conditions for four hours and under isoflurane anesthesia, and LDL-C in plasma was measured using high performance liquid chromatography by a method of Usui et • a1. (Usui S et al. Clin Chem., 46, 63-72, 2000).
Group 2: 0.3 mg/kg of compound A
Group 3: 10 mg/kg of compound B
Group 4: 0.3 mg/kg of compound A and 10 mg/kg of compound B
Group 5: 10 mg/kg of compound C
Group 6: 0.3 mg/kg of compound A and 10 mg/kg of compound C
Results were presented by an average value±standard deviation. Comparison between the control group and each of the pharmaceutical agent administration groups was performed by a multiple comparison test of Dunnett, and a risk rate of less than 5% was determined to have a significant difference.

[1] = 10 mg/kg orally once per day for two weeks

Structure (SMILES)	LDL-C in plasma (0.3 mg/kg orally once per day for two weeks)	LDL-C in plasma [1]
CC[C@@H](Oc1cccc(CN(CCCOc2ccc(OC)cc2)c2nc3ccccc3o2)c1)C(=O)O [compound A, (R)-2-[3-[[N-(benzoxazol-2-yl)-N-3-(4-methoxyphenoxy)propyl]aminomethyl]phenoxy]butyric acid]	a clear influence on LDL-C was not observed	–
CCN(C[C@H]1CC[C@H](CC(=O)O)CC1)c1ccc(C(F)(F)F)cc1CN(c1ncc(OCCS(C)(=O)=O)cn1)[C@@H](C)c1cc(C(F)(F)F)cc(C(F)(F)F)c1 [compound B, (S)-trans-{4-[({2-[({1-[3,5-bis(trifluoromethyl)phenyl]ethyl}{5-[2-(methylsulfonyl)ethoxy]pyrimidin-2-yl}amino)methyl]-4-(trifluoromethyl)phenyl}(ethyl)amino)methyl]cyclohexyl} acetic acid]	–	a clear influence on LDL-C was not observed
COc1cc(F)c(C(C)C)cc1-c1ccc(C(F)(F)F)cc1CN1C(=O)O[C@H](c2cc(C(F)(F)F)cc(C(F)(F)F)c2)[C@@H]1C [compound C, [4S,5R]-5-[3,5-bis(trifluoromethyl)phenyl]-3-{[4′-fluoro-2′-methoxy-5′-(propan-2-yl)-4-(trifluoromethyl)[1,1′-biphenyl]-2-yl]methyl}-4-methyl-1,3-oxazolidin-2-one, reference compound]	–	a clear influence on LDL-C was not observed

Reference: patent US9968592B2, “Dyslipidemia therapeutic agent” (KOWA COMPANY, LTD., priority 2014, dated 2018)
